pEC50: −log10 of the molar value.
The compounds below were run against human somatostatin receptor subtype 5 (Homo sapiens, UniProt P35346) (assay: cAMP assay for SST5R (inhibition of cAMP via human SST5 receptor)). Details: not given.
Sequence of human somatostatin receptor subtype 5 (P35346 whole entry): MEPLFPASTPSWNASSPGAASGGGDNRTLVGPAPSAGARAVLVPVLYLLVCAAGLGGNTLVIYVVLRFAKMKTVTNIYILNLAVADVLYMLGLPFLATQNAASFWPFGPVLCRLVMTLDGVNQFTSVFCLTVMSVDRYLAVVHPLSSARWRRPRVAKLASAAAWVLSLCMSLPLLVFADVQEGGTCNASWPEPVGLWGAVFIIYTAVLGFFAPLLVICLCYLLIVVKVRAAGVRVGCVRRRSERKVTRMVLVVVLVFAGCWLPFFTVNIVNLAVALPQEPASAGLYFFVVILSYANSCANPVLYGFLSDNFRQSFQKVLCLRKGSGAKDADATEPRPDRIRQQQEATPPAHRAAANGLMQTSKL

Row | Compound | pEC50
1 | Cc1cccc2c1nc(-c1cncc(-c3cc(F)cc(C#N)c3)c1N1CC[C@H](N)C1)n2C [Compound 2-114, 3-{4-[(3S)-3-aminopyrrolidin-1-yl]-5-(1,4-dimethyl-1H-1,3-benzodiazol-2-yl)pyridin-3-yl}-5-fluorobenzonitrile] | > 8.00
2 | Cn1c(-c2cncc(-c3cc(F)cc(C#N)c3)c2N2CC[C@H](N)C2)nc2cccc(Cl)c21 [Compound 2-117, 3-{4-[(3S)-3-aminopyrrolidin-1-yl]-5-(7-chloro-1-methyl-1H-1,3-benzodiazol-2-yl)pyridin-3-yl}-5-fluorobenzonitrile] | 7.00 to 8.00
3 | Cc1cccc2nc(-c3cncc(-c4cc(F)cc(C(N)=O)c4)c3N3CCC(C)(N)C3)[nH]c12 (stereo not drawn) [Compound 2-118, 3-[4-(3-amino-3-methylpyrrolidin-1-yl)-5-(4-methyl-1H-1,3-benzodiazol-2-yl)pyridin-3-yl]-5-fluorobenzamide] | > 8.00
4 | Cc1ccnc2nc(-c3cncc(-c4ccc(F)c(C#N)c4)c3N3CCC(C)(N)C3)[nH]c12 (stereo not drawn) [Compound 2-119, 5-[4-(3-amino-3-methylpyrrolidin-1-yl)-5-{7-methyl-1H-imidazo[4,5-b]pyridin-2-yl}pyridin-3-yl]-2-fluorobenzonitrile] | > 8.00
5 | Cc1cccc2nc(-c3cncc(-c4cc(F)c(F)c(C(=O)O)c4)c3N3CCC(C)(N)C3)[nH]c12 (stereo not drawn) [Compound 2-126, 5-[4-(3-amino-3-methylpyrrolidin-1-yl)-5-(4-methyl-1H-1,3-benzodiazol-2-yl)pyridin-3-yl]-2,3-difluorobenzoic acid] | < 6.00
6 | Cc1cccc2[nH]c(-c3cncc(-c4cc(F)cc(C#N)c4)c3N3CC[C@H](N)C3)cc12 [Compound 2-129, 3-{4-[(3S)-3-aminopyrrolidin-1-yl]-5-(4-methyl-1H-indol-2-yl)pyridin-3-yl}-5-fluorobenzonitrile] | 7.00 to 8.00
7 | Cc1cc(-c2cncc(-c3nc4cccc(F)c4[nH]3)c2N2CC[C@H](N)C2)cc(N)n1 [Compound 2-130, 4-[(3S)-3-aminopyrrolidin-1-yl]-5-(4-fluoro-1H-1,3-benzodiazol-2-yl)-6′-methyl-[3,4′-bipyridin]-2′-amine] | 6.00 to 7.00
8 | Cn1c(-c2cncc(-c3ccc(F)c(C#N)c3)c2N2CC[C@H](N)C2)nc2cccc(Cl)c21 [Compound 2-133, 5-{4-[(3S)-3-aminopyrrolidin-1-yl]-5-(7-chloro-1-methyl-1H-1,3-benzodiazol-2-yl)pyridin-3-yl}-2-fluorobenzonitrile] | > 8.00
9 | Cc1cccc2nc(-c3cncc(-c4ccc(F)c(C#N)c4)c3N3CC[C@H](N)C3)n(C)c12 [Compound 2-134, 5-{4-[(3S)-3-aminopyrrolidin-1-yl]-5-(1,7-dimethyl-1H-1,3-benzodiazol-2-yl)pyridin-3-yl}-2-fluorobenzonitrile] | > 8.00
10 | Cc1cccc2nc(-c3cncc(-c4cc(F)cc(C#N)c4)c3N3CC[C@](N)(CO)C3)[nH]c12 [Compound 2-136, 3-{4-[(3R)-3-amino-3-(hydroxymethyl)pyrrolidin-1-yl]-5-(4-methyl-1H-1,3-benzodiazol-2-yl)pyridin-3-yl}-5-fluorobenzonitrile] | 7.00 to 8.00
11 | Cc1cccc2cc(-c3cncc(-c4cc(F)cc(C#N)c4)c3N3CC[C@H](N)C3)[nH]c12 [Compound 2-137, 3-{4[(3S)-3-aminopyrrolidin-1-yl]-5-(7-methyl-1H-indol-2-yl)pyridin-3-yl}-5-fluorobenzonitrile] | 7.00 to 8.00
12 | Cc1cccc2nc(-c3cncc(-c4cccc(C(N)=O)c4F)c3N3CCC(C)(N)C3)[nH]c12 (stereo not drawn) [Compound 2-138, 3-[4-(3-amino-3-methylpyrrolidin-1-yl)-5-(4-methyl-1H-1,3-benzodiazol-2-yl)pyridin-3-yl]-2-fluorobenzamide] | > 8.00
13 | Cn1c(-c2cncc(-c3ccnc(C#N)c3)c2N2CC[C@](C)(N)C2)nc2c(F)cccc21 [Compound 2-150, 4-[(3S)-3-amino-3-methylpyrrolidin-1-yl]-5-(4-fluoro-1-methyl-1H-1,3-benzodiazol-2-yl)-[3,4′-bipyridine]-2′-carbonitrile] | > 8.00

Same assay, conditions: SST5 over SST2, class symbols

Row | Compound | Fold selectivity for SST5 vs SST2
14 | Cc1ccnc2nc(-c3cncc(-c4ccc(F)c(C#N)c4)c3N3CCC(C)(N)C3)[nH]c12 (stereo not drawn) [Compound 2-119, 5-[4-(3-amino-3-methylpyrrolidin-1-yl)-5-{7-methyl-1H-imidazo[4,5-b]pyridin-2-yl}pyridin-3-yl]-2-fluorobenzonitrile] | ++ (++=100 to 499)

Same assay, conditions: read-out: SST5 potency; inhibition of cAMP via human SST5 receptor; Table B

Row | Compound | pEC50
15 | Cc1ccnc2nc(-c3cncc(-c4ccc(F)c(C#N)c4)c3N3CCC(C)(N)C3)[nH]c12 (stereo not drawn) [Compound 2-119, 5-[4-(3-amino-3-methylpyrrolidin-1-yl)-5-{7-methyl-1H-imidazo[4,5-b]pyridin-2-yl}pyridin-3-yl]-2-fluorobenzonitrile] | > 8.00

From patent US11608335B2, “Somatostatin modulators and uses thereof” (CRINETICS PHARMACEUTICALS, INC., priority 2018, dated 2023)
